Results as given in PubChem BioAssay AID1985 (Southern Research Specialized Biocontainment Screening …, 2009).
Values joined by “and” are separate entries in the source; they are usually repeats but may differ in a detail not shown here. Identical values can stand only once.

Tested on: S. Typhi PhoP-promoter GFP reporter, fluorescence, 4 h
Experiment: PhoP regulon inhibitor project modified counter assay, GFP fluorescence readout, dose response (AID 1985)

First: C#CCOCCOCCOCCNc1nc(N2CCN(C(=O)CCCCCCCCCCNC(=O)[C@H]([C@@H](C)CC)n3cc(CCCCN=C(N)N)nn3)CC2)nc(N2CCN(C(=O)CCCCCCCCCCNC(=O)[C@H](CO)n3cc(CCCCCN)nn3)CC2)n1
Second: CO[C@@]1(NC(=O)C2SC(=C(C(N)=O)C(=O)O)S2)C(=O)N2C(C(=O)O)=C(CSc3nnnn3C)CS[C@@H]21 (some centres not stated)
The IC50 of the first is 2.5-fold higher: 32.8 µM for the first, 13.1 µM for the second. The second is the more potent here.

Going from `Cc1ccc(S(=O)(=O)NNc2ccccc2)c(C)c1` to `O=C(Nc1ccccc1)c1ccc2nsnc2c1`, the IC50 falls from 117 µM to < 0.23 µM. The second is the more potent here.

`O=C(C[n+]1cc(-c2ccc(Cl)cc2)n2c1CCC2)Nc1nc(-c2ccccc2)cs1` and `Nc1nc(Nc2ccc(Cl)cc2)nc2ccccc12` are within 1.5-fold of each other in IC50: 36.7 µM for the first, 33 µM for the second.

`CCOC(=O)N/N=C\c1ccc([N+](=O)[O-])o1` and `Cc1cc([N+](=O)[O-])nn1CC(=O)N/N=C/c1ccccc1O` are within 1.5-fold of each other in IC50: 23.7 µM for the first, 35.4 µM for the second.

Going from `COc1ccc(Cl)cc1S(=O)(=O)N1CCN(C(=O)c2ccco2)CC1` to `CCOC(=O)N1CCN(Cc2cc(Cl)c3cccnc3c2O)CC1`, the IC50 falls from 145 µM to 37.8 µM (3.8-fold). The second is the more potent here.

`CCCOc1ccc(C(=O)NNC(=S)NC(=O)CC)cc1` and `O=C(NNC(=S)NC(=O)c1ccco1)c1ccc(F)cc1` are within 1.5-fold of each other in IC50: 78.8 µM for the first, 96.8 µM for the second.

`CCCCCCCCCn1c2c(c(=N)c3c1CCC3)CCC2` and `CCCCCCCCCCC[N+](C)(C)CC/C=C1/c2ccccc2Sc2ccc(Cl)cc21` are within 1.5-fold of each other in IC50: 36.7 µM for the first, 31.4 µM for the second.

First: Nc1[nH]ncc1-c1ccccc1
Second: c1ccc(-c2nc3ccccc3[nH]2)cc1
The IC50 of the first is 2.4-fold lower: 31.9 µM for the first, 75 µM for the second. The first is the more potent here.

First: COc1ccc(N2CC(C(=O)N/N=C/c3cc([N+](=O)[O-])ccc3O)CC2=O)cc1 (configuration not stated)
Second: COc1cc(/C=N/NC(=O)c2cncc(Br)c2)cc([N+](=O)[O-])c1O
The IC50 of the first is higher: 81.2 µM for the first, < 0.23 µM for the second.

`O=C1C2=C(Nc3ccccc3SC2c2ccco2)c2ccccc21` (configuration not stated) and `O=C1Nc2ccccc2C1=Nc1ccc(S(=O)(=O)Nc2nccs2)cc1` are within 1.5-fold of each other in IC50: 120 µM for the first, 90.1 µM for the second.

Compared with `Clc1ccc2[nH]c3c(c2c1)CCc1cn[nH]c1-3`, `Fc1cccc(Nc2c3c(nc4ccccc24)CCC3)c1` is 1.7-fold higher in IC50: 74.8 µM for the first, 126 µM for the second. The first is the more potent here.

Compared with `O=C(N/N=C/c1sc2ccccc2c1O)c1cccc2ccccc12`, `O=C(Nc1cccc(NC(=O)c2ccccc2Cl)c1)c1ccc([N+](=O)[O-])o1` is 1.5-fold lower in IC50: 26.7 µM for the first, 17.5 µM for the second. The second is the more potent here.

`O=C(/C=C/c1cc(Br)ccc1O)c1ccco1` and `O=C(Oc1ccccc1)c1cc2ccccc2o1` are within 1.5-fold of each other in IC50: 68.1 µM for the first, 76.2 µM for the second.

Going from `Cc1ccc2c(c1)C1CN(C)CCC1N2Sc1ccccc1[N+](=O)[O-]` (configuration not stated) to `CN(Cc1ccccc1O)CC1CCCN(CCc2ccc(Cl)cc2)C1` (configuration not stated), the IC50 falls from 135 µM to 51.6 µM (2.6-fold).

`CC(NCc1ccccc1O)C12CC3CC(CC(C3)C1)C2` (configuration not stated) and `COc1ccccc1N1CCN(Cc2ccc(O)c3ncccc23)CC1` are within 1.5-fold of each other in IC50: 81.4 µM for the first, 72 µM for the second.

`C(=N/Nc1nccs1)/c1cccnc1` and `Cc1cc(C)c2nc(C)cc(N/N=C/c3ccc(O)cc3)c2c1` are within 1.5-fold of each other in IC50: 61.5 µM for the first, 49.7 µM for the second.

First: OC1CNCc2cc3c(cc21)OCCO3 (configuration not stated)
Second: Cc1cc2nc(C3CCN(CC4COc5ccccc5O4)CC3)[nH]c2cc1C (configuration not stated)
The IC50 of the first is 5.3-fold higher: 80.8 µM for the first, 15.2 µM for the second.

First: CN1CCN(C2Cc3ccc(Cl)cc3Sc3ccc(F)cc32)CC1 (configuration not stated)
Second: Oc1cccc(Nc2nc(NCC3CCCO3)c3ccccc3n2)c1 (configuration not stated)
The IC50 of the first is 2-fold lower: 39.6 µM for the first, 77.3 µM for the second.

Compared with `Cc1[nH]n(-c2ccccc2)c(=O)c1C(c1cccc([N+](=O)[O-])c1O)c1c(C)[nH]n(-c2ccccc2)c1=O`, `O=C(CC1NCCc2ccccc21)Nc1ccc(Oc2ccccc2)cc1` (configuration not stated) is 1.6-fold higher in IC50: 48.5 µM for the first, 79.9 µM for the second.

Going from `CCn1cc(C(=O)O)c(=O)c2ccc(C)nc21` to `CC1(C)CC(=O)c2c(nc3ccccc3c2N)C1`, the IC50 rises from 76.6 µM to 143 µM (1.9-fold).

`CCN(CC)c1ccc(CNc2nc3ccccc3n2C)cc1` and `CCCCCc1ccc(OCCCC[n+]2ccccc2)c(CCCCC)c1` are within 1.5-fold of each other in IC50: 97.3 µM for the first, 74.5 µM for the second.

`O=C1CSC(=S)N1c1cccc(O)c1` and `O=c1ccnc(Sc2ncccc2[N+](=O)[O-])[nH]1` are within 1.5-fold of each other in IC50: 72.8 µM for the first, 102 µM for the second.

Compared with `NC1=NC[C@H](Cc2ccccc2)N1CCCCC1CCCCC1`, `O=C(CCc1ccccc1)NNC(=O)c1ccccn1` is 2.8-fold higher in IC50: 36.1 µM for the first, 101 µM for the second.

With `CN1CCN(c2c(F)cc3c(=O)c(C(=O)O)cn4c3c2SCC4)CC1` the IC50 was 3.16 µM and 3.49 µM.
